Data published in PMC13313556, “Development and characterization of triazole-based WDR5 inhibitors for the treatment of glioblastoma” (JCI Insight, 2026).

Tested on: RPS24, PYGL, CKMT1, SALL2, NID2, PYGB, RPL14 transcripts
Assay: RT-qPCR of WDR5-target genes in patient-derived CSCs (L0, L1, L2, DI318, 3832)
Assay type: cell-based, human
Conditions: 72 hours
Description: Cells were harvested by centrifugation (5 minutes, 500g) into 2 mL Eppendorf Tubes and total RNA was purified on spin columns using the RNeasy Plus Kit (Qiagen, includes gDNA removal columns). In total, 2.5 μg of total RNA was treated with ezDNAse (Thermo Fisher) and then reverse transcribed with the SuperScript IV VILO RT Master Mix (Invitrogen). cDNA was diluted 1:100 in nuclease-free water and then transcripts were quantified using the PowerUp SYBR Green Master Mix (Thermo Fisher) on a QuantStudio 3 qPCR machine according to the manufacturer’s recommendations. Primer sets are provided in the Supporting Information. Raw Cq values were normalized per sample to the housekeeper ACTB and then the fold-change relative to DMSO treated cells was calculated as FC = 2^–ΔΔCq.

## COc1cc(Cn2nnc3c2CCc2c(-c4cn(C)nc4C(F)(F)F)cc(Cn4ccnc4C)cc2-3)cc(OC)c1 [C3TD078]
Homo sapiens, L0 and DI318, 5 genes, read-out: average IC50 of transcriptional downregulation (qPCR)
  IC50: 80 nM
L0, L2, DI318, 3832, 200 nM
  PYGB expression log2FC: < 1.0
All 5 CSC models, 200 nM
  PYGL and CKMT1 downregulation: ~ 4 fold
  RPL14 expression: unaffected
  RPS24 downregulation: ~ 2 fold
